Laboratory results: patent US20100087649A1, “QUINOLINONE DERIVATIVES” (priority 2006, published 2010)

Tests used:
[1] = tested on: wild-type HIV-IIIB strain; assay: Antiviral analysis EGFP: anti-HIV activity in MT4 LTR-EGFP cells; assay type: cell-based, HIV-1; conditions: fluorescence of HIV-infected cells reduced by 50%, three days after infection
Experimental: The compounds of the present invention were tested for anti-viral activity in a cellular assay, which was performed according to the following procedure.
The human T-cell line MT4 is engineered with Green Fluorescent Protein (GFP) and an HIV-specific promoter, HIV-1 long terminal repeat (LTR). This cell line is designated MT4 LTR-EGFP, and can be used for the in vitro evaluation of anti-HIV activity of investigational compounds. In HIV-1 infected cells, the Tat protein is produced which upregulates the LTR promotor and finally leads to stimulation of the GFP reporter production, allowing measuring ongoing HIV-infection fluorometrically.
(§1) Effective concentration values such as 50% effective concentration (EC50) can be determined and are usually expressed in μM. An EC50 value is defined as the concentration of test compound that reduces the fluorescence of HIV-infected cells by 50%. The 50% cytotoxic concentration (CC50 in μM) is defined as the concentration of test compound that reduces fluorescence of the mock-infected cells by 50%. The ratio of CC50 to EC50 is defined as the selectivity index (SI) and is an indication of the selectivity of the anti-HIV activity of the inhibitor. The ultimate monitoring of HIV-1 infection and cytotoxicity is done using a scanning microscope. Image analysis allows very sensitive detection of viral infection. Measurements are done before cell necrosis, which usually takes place about five days after infection, in particular measurements are performed three days after infection.
The following Table 5 lists EC50 values, expressed in micromole/liter, against wild-type HIV-IIIB strain, for a selected number of compounds of the invention.

[2] = tested on: MT4 CMV-EGFP cells; assay: Cytotoxicity in mock-infected MT4 CMV-EGFP cells; assay type: cell-based, human; conditions: fluorescence reduced by 50%
From the text: Analogously, MT4 cells are engineered with GFP and the constitutional cytomegalovirus (CMV) promotor. This cell line is designated MT4 CMV-EGFP, and can be used for the in vitro evaluation of cytotoxicity of investigational compounds. In this cell line, GFP levels are comparably to those of infected MT4 LTR-EGFP cells. Cytotoxic investigational compounds reduce GFP levels of mock-infected MT4 CMV-EGFP cells.
as §1

Row | SMILES | EC50 [1] [µM] | CC50 [2] [µM]
1 | N#Cc1cc2ccc(NCc3cccnc3)cc2n(-c2ccc([N+](=O)[O-])cc2)c1=O [compound 23] | > 32 | > 32
2 | Cc1ccc(-n2c(=O)c(C#N)cc3ccccc32)cn1 [compound 5] | > 32 | > 32
3 | N#Cc1cc2ccc(OCCN3CCOCC3)cc2n(-c2ccc([N+](=O)[O-])cc2)c1=O [compound 55] | 13.5 | > 32
4 | N#Cc1cc2ccc(-c3cccc(CO)c3)cc2n(-c2ccc([N+](=O)[O-])cc2)c1=O [compound 38] | 0.61 | 18.6
5 | N#Cc1cc2ccc(OCCO)cc2n(-c2ccc([N+](=O)[O-])cc2)c1=O [compound 75] | 3.49 | > 32
6 | N#Cc1c(N)c2cc3c(cc2n(-c2ccc(Cl)nc2)c1=O)OCO3 [compound 117] | > 32 | > 32
7 | CN(C)CCCNc1ccc2cc(C#N)c(=O)n(-c3ccc([N+](=O)[O-])cc3)c2c1 [compound 20] | 0.3 | 49
8 | CC(=O)NCc1cccc(-c2ccc3cc(C#N)c(=O)n(-c4ccc([N+](=O)[O-])cc4)c3c2)c1 [compound 43] | 0.93 | > 100
9 | N#Cc1cc2ccc(-c3cc[nH]n3)cc2n(-c2ccc([N+](=O)[O-])cc2)c1=O [compound 46] | 0.16 | > 100
10 | N#Cc1ccc(-n2c(=O)c(C#N)cc3ccccc32)cc1 [compound 2] | > 32 | > 32
11 | N#Cc1c(NCCCO)c2ccccc2n(-c2ccc([N+](=O)[O-])cc2)c1=O [compound 138] | 12 | > 100
12 | N#Cc1cc2ccc(-c3cccc(N)c3)cc2n(-c2ccc([N+](=O)[O-])cc2)c1=O [compound 37] | 0.42 | > 100
13 | CN(C)Cc1cccc(-c2ccc3cc(C#N)c(=O)n(-c4ccc([N+](=O)[O-])cc4)c3c2)c1 [compound 45] | 0.14 | 17.1
14 | Cc1ccc(-n2c(=O)c(C#N)cc3ccc(-c4cccc(CN(C)C)c4)cc32)cc1C#N [compound 152] | 0.58 | 3.95
15 | N#Cc1cc2ccc(NCCN)cc2n(-c2ccc([N+](=O)[O-])cc2)c1=O [compound 16] | 1.55 | > 32
16 | N#Cc1cc2ccc(NCCCN)cc2n(-c2ccc([N+](=O)[O-])cc2)c1=O [compound 19] | 0.91 | 30.6
17 | Cc1ccc(-n2c(=O)c(C#N)c(N)c3ccc(Cl)cc32)cc1C#N [compound 162] | 0.87 | > 100
18 | N#Cc1cc2cc3c(cc2n(-c2ccc(Cl)nc2)c1=O)OCO3 [compound 97] | > 32 | > 32
19 | CC(=O)NCCCOc1ccc2cc(C#N)c(=O)n(-c3ccc([N+](=O)[O-])cc3)c2c1 [compound 69] | 10.2 | > 100
20 | CCN(CC)CCOc1ccc2cc(C#N)c(=O)n(-c3ccc([N+](=O)[O-])cc3)c2c1 [compound 59] | 12.9 | > 32
21 | N#Cc1cc2ccc(OCCCN3CCCCC3)cc2n(-c2ccc([N+](=O)[O-])cc2)c1=O [compound 67] | 1.17 | > 32
22 | N#Cc1c(NCCCN2CCCC2)c2ccccc2n(-c2ccc([N+](=O)[O-])cc2)c1=O [compound 132] | 2.04 | 15.3
23 | N#Cc1c(N)c2ccccc2n(-c2ccc(Cl)nc2)c1=O [compound 104] | 19.5 | > 32
24 | N#Cc1cc2ccc(O)cc2n(-c2ccc(Cl)nc2)c1=O [compound 91] | > 32 | > 32
25 | CN(C)CCOc1ccc2c(c1)cc(C#N)c(=O)n2-c1ccc([N+](=O)[O-])cc1 [compound 90] | 0.89 | > 32

Row | SMILES | EC50 [1] [µM] | CC50 [2] [µM]
26 | CNCCCNc1ccc2cc(C#N)c(=O)n(-c3ccc([N+](=O)[O-])cc3)c2c1 [compound 22] | 0.36 | 88.7
27 | N#Cc1cc2ccc(-c3cn[nH]c3)cc2n(-c2ccc([N+](=O)[O-])cc2)c1=O [compound 48] | 0.71 | > 100
28 | N#Cc1c(NCCCn2ccnc2)c2ccccc2n(-c2ccc([N+](=O)[O-])cc2)c1=O [compound 140] | > 100 | > 100
29 | N#Cc1c(N)c2cc(F)c(Cl)cc2n(-c2ccc([N+](=O)[O-])cc2)c1=O [compound 108] | 0.9 | > 100
30 | N#Cc1cc2ccc(OCCN3CCNCC3)cc2n(-c2ccc([N+](=O)[O-])cc2)c1=O [compound 61] | 3.65 | > 32
31 | Cc1ccc(-n2c(=O)c(C#N)c(N)c3ccccc32)cc1C#N [compound 166] | 3.01 | > 100
32 | N#Cc1cc2ccc(NCCN3CCOCC3)cc2n(-c2ccc([N+](=O)[O-])cc2)c1=O [compound 14] | 4.08 | > 32
33 | N#Cc1cc2ccc(-c3ccncc3)cc2n(-c2ccc([N+](=O)[O-])cc2)c1=O [compound 29] | 0.92 | > 32
34 | N#Cc1cc2ccc(OCCCO)cc2n(-c2ccc([N+](=O)[O-])cc2)c1=O [compound 76] | 1.03 | > 100
35 | N#Cc1cc2ccc(-c3cccc(C(N)=O)c3)cc2n(-c2ccc([N+](=O)[O-])cc2)c1=O [compound 42] | 2.85 | > 100
36 | N#Cc1c(N)c2ccc(-c3cscn3)cc2n(-c2ccc([N+](=O)[O-])cc2)c1=O [compound 120] | 0.54 | > 100
37 | CCN(CC)CCCOc1ccc2cc(C#N)c(=O)n(-c3ccc([N+](=O)[O-])cc3)c2c1 [compound 66] | 1.26 | > 32
38 | N#Cc1cc2ccccc2n(-c2ccc([N+](=O)[O-])cn2)c1=O [compound 3] | 4.8 | > 32
39 | N#Cc1cc2cc3c(cc2n(-c2ccc([N+](=O)[O-])cc2)c1=O)OCO3 [compound 6] | 1.12 | > 100
40 | N#Cc1cc2ccc(OCCN3CCCC3)cc2n(-c2ccc([N+](=O)[O-])cc2)c1=O [compound 52] | 2.45 | > 32
41 | N#Cc1c(N)c2ccc(Cl)cc2n(-c2ccc3nonc3c2)c1=O [compound 113] | 2.73 | > 100
42 | N#Cc1cc2ccccc2n(-c2ccc(Cl)nc2)c1=O [compound 4] | > 32 | > 32
43 | N#Cc1cc2ccc(OCCCNCCO)cc2n(-c2ccc([N+](=O)[O-])cc2)c1=O [compound 72] | 0.93 | > 32
44 | N#Cc1cc2ccc(NCCN3CCCC3)cc2n(-c2ccc([N+](=O)[O-])cc2)c1=O [compound 12] | 1.22 | > 100
45 | CC(=O)Nc1cccc(-c2ccc3cc(C#N)c(=O)n(-c4ccc([N+](=O)[O-])cc4)c3c2)c1 [compound 39] | 51.3 | > 100
46 | N#Cc1cc2ccc(-c3cncnc3)cc2n(-c2ccc([N+](=O)[O-])cc2)c1=O [compound 31] | 7.9 | > 100
47 | N#Cc1c(N)c2ccc(Cl)cc2n(-c2ccc([N+](=O)[O-])cc2)c1=O [compound 102] | 0.85 | > 32
48 | N#Cc1c(N)c2cc(Cl)ccc2n(-c2ccc([N+](=O)[O-])cc2)c1=O [compound 107] | > 100 | > 100
49 | Cc1ccc(-n2c(=O)c(C#N)cc3ccc(-c4cscn4)cc32)cc1C#N [compound 160] | 0.33 | –
50 | N#Cc1cc2ccc(-c3ncco3)cc2n(-c2ccc([N+](=O)[O-])cc2)c1=O [compound 79] | 0.12 | –
